In ChEMBL document CHEMBL1201862, “PubChem BioAssay data set” (2004):
Activity calls are given as the source filed them.

What was measured:
[1] = system: HEK293; assay: cells; format: functional, cell-based; settings: Homo sapiens
[2] = target: T1, Nuclear receptor subfamily 0 group B member 1 (Homo sapiens, UniProt P51843); assay: Luminescence-based cell-based high throughput dose response assay for inhibitors of the orphan nuclear receptor subfamily 0, group B, member 1 (DAX1; NR0B1). [Related pubchem assays (depositor defined):AID504766, AID504790]; format: functional
T1 sequence (P51843 whole entry): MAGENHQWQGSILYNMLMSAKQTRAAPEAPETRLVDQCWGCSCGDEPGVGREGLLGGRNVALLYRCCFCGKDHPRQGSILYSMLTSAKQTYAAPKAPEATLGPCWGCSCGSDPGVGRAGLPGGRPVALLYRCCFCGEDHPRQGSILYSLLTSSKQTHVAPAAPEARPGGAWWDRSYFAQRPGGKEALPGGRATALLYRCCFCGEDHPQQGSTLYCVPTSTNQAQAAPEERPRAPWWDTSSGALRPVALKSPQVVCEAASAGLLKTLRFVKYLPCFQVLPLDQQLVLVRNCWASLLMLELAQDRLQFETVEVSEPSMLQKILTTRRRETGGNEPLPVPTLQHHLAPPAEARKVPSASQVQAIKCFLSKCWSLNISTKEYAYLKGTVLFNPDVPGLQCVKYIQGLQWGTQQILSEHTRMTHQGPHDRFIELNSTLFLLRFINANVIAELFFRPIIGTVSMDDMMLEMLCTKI

[3] = target: G-protein coupled receptor 55 (Homo sapiens, UniProt Q9Y2T6); assay: GPR55 antagonists blocking LPI-driven arrestin recruitment, primary screen, imaging, U2OS, beta-arrestin-GFP, LPI agonist (AID 2013); format: functional;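 also: antagonist potency measured as reduced agonist-driven arrestin aggregation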
[4] = target: DNA dC->dU-editing enzyme APOBEC-3A (Homo sapiens, UniProt P31941); assay: Dose Response confirmation of small molecule APOBEC3A DNA Deaminase Inhibitors via a fluorescence-based single-stranded DNA deaminase assay. [Related pubchem assays (depositor defined):AID493011, AID493024]; format: functional
[5] = target: T2, RNA-binding protein pos-1 (Caenorhabditis elegans, UniProt G5EF15); assay: inhibitors of POS-1/mex-3 RNA binding, dose response, biochemical, fluorescence polarization (AID 1964);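 also: purified POS-1 fused to maltose binding protein made in E. coli; potency of compounds blocking POS-1 binding to fluorescent RNA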
T2 sequence (G5EF15 whole entry): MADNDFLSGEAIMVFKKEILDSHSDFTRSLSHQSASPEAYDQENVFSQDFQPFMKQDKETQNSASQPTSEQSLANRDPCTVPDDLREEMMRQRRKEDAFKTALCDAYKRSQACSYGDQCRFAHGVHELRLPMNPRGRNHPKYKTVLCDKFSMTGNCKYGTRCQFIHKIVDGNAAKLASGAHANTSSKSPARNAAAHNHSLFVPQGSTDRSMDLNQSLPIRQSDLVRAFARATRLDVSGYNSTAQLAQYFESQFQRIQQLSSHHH

[6] = target: T3, Zinc finger protein mex-5 (Caenorhabditis elegans, UniProt Q9XUB2); assay: MEX-5/TCR-2 RNA interaction inhibitors, dose response, biochemical, C. elegans, fluorescence polarization (AID 1960)
T3 sequence (Q9XUB2 whole entry): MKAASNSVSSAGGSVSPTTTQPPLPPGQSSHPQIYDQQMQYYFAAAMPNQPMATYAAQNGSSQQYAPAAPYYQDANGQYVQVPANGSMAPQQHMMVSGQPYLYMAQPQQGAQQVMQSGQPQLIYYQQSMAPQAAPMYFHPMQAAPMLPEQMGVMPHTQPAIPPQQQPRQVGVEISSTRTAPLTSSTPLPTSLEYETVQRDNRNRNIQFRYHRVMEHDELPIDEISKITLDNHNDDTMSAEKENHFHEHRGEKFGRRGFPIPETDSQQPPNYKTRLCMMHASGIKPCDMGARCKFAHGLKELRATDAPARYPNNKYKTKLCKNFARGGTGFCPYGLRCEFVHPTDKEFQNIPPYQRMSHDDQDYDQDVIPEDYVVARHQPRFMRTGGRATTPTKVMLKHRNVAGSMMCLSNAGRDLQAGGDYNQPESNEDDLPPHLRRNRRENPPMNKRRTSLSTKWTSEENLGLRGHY

[7] = target: DNA dC->dU-editing enzyme APOBEC-3G (Homo sapiens, UniProt Q9HC16); format: functional;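 also: Dose-response counterscreen measuring inhibition of APOBEC3G DNA deaminase activity, run while confirming APOBEC3A inhibitors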
[8] = target: Voltage-gated inwardly rectifying potassium channel KCNH2 (Homo sapiens, UniProt Q12809); settings: Potency;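 also: confirmatory quantitative high-throughput screen measuring inhibition of hERG channel activity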
[9] = target: T4, Carboxy-terminal domain RNA polymerase II polypeptide A small phosphatase 1 (Homo sapiens, UniProt Q9GZU7); assay: inhibitors of CTDSP1, concentration-response testing, biochemical assay, absorbance-based, actives from ultra-high-throughput screening (AID 540297); format: functional
T4 sequence (Q9GZU7 whole entry): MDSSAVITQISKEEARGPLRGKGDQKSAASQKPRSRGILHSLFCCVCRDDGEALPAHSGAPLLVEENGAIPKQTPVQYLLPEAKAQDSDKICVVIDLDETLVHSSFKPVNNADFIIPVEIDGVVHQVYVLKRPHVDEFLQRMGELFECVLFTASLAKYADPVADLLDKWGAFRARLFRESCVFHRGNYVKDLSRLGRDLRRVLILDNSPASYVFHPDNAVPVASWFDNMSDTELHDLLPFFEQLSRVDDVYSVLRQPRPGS

[10] = Luminescence Cell-Based Dose Retest to Confirm Inhibitors of Cancer Stem Cells. [Related pubchem assays (depositor defined):AID2717, AID2721]; format: functional; settings: Homo sapiens
[11] = system: Vero; assay: cells; format: functional; settings: Chlorocebus sabaeus
[12] = system: HeLa; assay: HeLa cell cytotoxicity, dose response, cytotoxicity control, 24 h, cherry-picked samples (AID 504726); format: functional, cell-based; settings: Homo sapiens;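 also: potency for cytotoxicity as loss of luminescence signal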
[13] = target: T5, Small ubiquitin-related modifier 1 (Homo sapiens, UniProt P63165); assay: inhibitors of SUMO1 peptide binding, dose response, biochemical, fluorescence polarization, uHTS hits (AID 624382); format: functional; settings: read-out: IC50_Mean
[14] = target: Albumin (Bos taurus, UniProt P02769); assay: Counterscreen for inhibitors of T-cell receptor (TCR)-CD3 interaction: Fluorescence-based biochemical high throughput dose response assay to identify inhibitors of T-cell receptor (TCR)-CD3 interaction using a TAMRA-labeled BSA probe.; format: functional
[15] = target: T6, Rac GTPase-activating protein 1 (Homo sapiens, UniProt Q9H0H5); assay: MgcRacGAP GTPase-activating activity inhibitors, confirmation, biochemical, ADP Hunter fluorescence, primary and confirmatory (AID 624330); format: functional
T6 sequence (Q9H0H5 whole entry): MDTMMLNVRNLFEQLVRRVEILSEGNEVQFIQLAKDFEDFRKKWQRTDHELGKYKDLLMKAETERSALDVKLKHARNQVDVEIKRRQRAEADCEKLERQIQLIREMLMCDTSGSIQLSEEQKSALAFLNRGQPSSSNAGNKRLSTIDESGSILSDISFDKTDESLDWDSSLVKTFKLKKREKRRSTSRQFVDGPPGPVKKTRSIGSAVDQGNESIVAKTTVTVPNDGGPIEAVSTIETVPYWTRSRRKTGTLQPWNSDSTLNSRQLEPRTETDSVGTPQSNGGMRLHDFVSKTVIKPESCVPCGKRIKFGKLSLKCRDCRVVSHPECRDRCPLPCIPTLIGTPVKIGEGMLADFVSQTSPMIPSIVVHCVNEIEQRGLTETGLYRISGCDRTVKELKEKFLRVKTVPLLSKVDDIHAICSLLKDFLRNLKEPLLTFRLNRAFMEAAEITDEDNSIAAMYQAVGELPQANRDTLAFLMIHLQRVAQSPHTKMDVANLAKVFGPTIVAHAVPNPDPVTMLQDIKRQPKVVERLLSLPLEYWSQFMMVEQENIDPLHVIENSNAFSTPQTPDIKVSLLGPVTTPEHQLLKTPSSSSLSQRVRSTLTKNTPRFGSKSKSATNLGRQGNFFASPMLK

[16] = target: T5, Small ubiquitin-related modifier 1; assay: inhibitors of SUMO1 partner interactions, dose response, biochemical, FRET (AID 624383); format: functional; settings: read-out: IC50_Mean
[17] = target: T7, Alkaline phosphatase, tissue-nonspecific isozyme (Homo sapiens, UniProt P05186); assay: human TNAP enzyme inhibitors, SAR follow-up, biochemical, luminescent, dose response (AID 1056)
T7 sequence (P05186 whole entry): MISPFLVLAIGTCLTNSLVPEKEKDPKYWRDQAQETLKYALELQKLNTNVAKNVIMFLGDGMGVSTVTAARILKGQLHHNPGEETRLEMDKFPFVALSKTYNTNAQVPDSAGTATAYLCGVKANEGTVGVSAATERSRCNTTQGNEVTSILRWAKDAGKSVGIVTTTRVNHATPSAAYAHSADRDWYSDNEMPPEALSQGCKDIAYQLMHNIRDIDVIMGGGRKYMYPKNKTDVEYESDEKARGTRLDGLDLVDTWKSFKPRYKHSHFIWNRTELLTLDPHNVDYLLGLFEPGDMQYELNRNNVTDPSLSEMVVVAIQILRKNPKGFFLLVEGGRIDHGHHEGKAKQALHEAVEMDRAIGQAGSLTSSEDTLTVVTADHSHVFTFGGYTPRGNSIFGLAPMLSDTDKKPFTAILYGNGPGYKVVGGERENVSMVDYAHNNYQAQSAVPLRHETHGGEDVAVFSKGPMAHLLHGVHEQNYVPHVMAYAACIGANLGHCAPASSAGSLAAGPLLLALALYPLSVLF

[18] = target: Alkaline phosphatase, placental type (Homo sapiens, UniProt P05187); assay: PLAP enzyme inhibitors, confirmation, biochemical, luminescence (AID 1512); format: functional
[19] = target: Nonstructural protein 1 (Influenza A virus, UniProt Q194T2); format: functional, Influenza A virus (A/California/07/2009(H1N1))
[20] = system: HEK293; assay: cells; settings: Homo sapiens
[21] = target: Tumor necrosis factor (Homo sapiens, UniProt P01375); assay: TNFa-triggered NF-kB activation inhibitors, SAR follow-up, cell-based, revised (AID 2337); format: functional
[22] = target: T8, Nucleotide-binding oligomerization domain-containing protein 1 (Homo sapiens, UniProt Q9Y239); assay: NOD1 signaling inhibitors, SAR follow-up, revised (AID 2333); format: functional
T8 sequence (Q9Y239 whole entry): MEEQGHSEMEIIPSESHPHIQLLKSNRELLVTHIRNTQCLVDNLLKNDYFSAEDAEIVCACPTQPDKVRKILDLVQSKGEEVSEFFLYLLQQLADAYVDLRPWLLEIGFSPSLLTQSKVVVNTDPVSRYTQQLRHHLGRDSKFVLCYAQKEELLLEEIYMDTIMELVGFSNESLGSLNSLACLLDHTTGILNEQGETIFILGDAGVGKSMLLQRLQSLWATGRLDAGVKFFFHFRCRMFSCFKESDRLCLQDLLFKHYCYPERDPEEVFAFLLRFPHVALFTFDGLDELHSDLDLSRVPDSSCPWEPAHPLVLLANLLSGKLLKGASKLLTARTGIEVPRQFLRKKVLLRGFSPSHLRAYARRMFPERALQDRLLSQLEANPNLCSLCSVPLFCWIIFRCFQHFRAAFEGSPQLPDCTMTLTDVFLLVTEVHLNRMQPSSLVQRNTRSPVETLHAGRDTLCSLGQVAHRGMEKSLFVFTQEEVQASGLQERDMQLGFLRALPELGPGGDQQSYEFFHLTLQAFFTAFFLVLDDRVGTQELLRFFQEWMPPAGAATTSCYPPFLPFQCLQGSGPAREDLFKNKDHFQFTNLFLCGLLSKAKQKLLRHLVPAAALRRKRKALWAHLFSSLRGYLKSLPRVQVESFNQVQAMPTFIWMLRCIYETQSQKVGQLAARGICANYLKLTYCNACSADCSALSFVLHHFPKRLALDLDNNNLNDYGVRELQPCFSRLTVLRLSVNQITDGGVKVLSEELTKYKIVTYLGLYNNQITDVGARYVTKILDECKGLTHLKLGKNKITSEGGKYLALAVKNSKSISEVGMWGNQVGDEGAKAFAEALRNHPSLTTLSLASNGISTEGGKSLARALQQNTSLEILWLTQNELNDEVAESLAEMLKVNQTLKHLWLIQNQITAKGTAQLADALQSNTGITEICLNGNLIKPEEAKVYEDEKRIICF

[23] = system: H9c2; assay: cells; format: functional, cell-based; settings: Rattus norvegicus, H9c2, Myocardium;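 also: confirmatory concentration-response retest of ultra-high-throughput screening hits for modulation of myocardial damage; cell death induced by hydrogen peroxide oxidative stress; compound pretreatment for 60 min then peroxide exposure for 2 h; potency is for protecting the cells against peroxide damage rather than for killing them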

Tumor necrosis factor, sequence (P01375 whole entry, the tested form may be a part): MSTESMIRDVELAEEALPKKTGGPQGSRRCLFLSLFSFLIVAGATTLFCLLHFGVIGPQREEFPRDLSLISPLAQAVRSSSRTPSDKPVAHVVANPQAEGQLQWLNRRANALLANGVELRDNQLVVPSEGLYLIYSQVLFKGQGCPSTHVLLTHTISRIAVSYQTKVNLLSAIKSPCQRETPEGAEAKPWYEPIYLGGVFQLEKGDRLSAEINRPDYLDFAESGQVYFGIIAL
Alkaline phosphatase, placental type, sequence (P05187 whole entry): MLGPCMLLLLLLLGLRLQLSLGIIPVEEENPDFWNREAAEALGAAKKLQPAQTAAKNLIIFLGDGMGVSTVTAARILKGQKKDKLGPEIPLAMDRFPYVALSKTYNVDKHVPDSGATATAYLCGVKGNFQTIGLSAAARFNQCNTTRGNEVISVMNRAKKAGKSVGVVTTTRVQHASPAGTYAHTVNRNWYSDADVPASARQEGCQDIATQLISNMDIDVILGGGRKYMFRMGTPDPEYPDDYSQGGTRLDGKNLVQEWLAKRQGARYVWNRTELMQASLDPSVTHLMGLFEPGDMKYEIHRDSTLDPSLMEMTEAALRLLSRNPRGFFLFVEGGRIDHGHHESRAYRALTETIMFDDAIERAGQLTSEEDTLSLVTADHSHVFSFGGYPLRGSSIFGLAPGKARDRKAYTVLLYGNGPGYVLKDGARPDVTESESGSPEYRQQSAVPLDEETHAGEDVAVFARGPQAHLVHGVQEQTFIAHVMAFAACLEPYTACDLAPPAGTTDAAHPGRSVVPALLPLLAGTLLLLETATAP
T5 sequence (P63165 whole entry): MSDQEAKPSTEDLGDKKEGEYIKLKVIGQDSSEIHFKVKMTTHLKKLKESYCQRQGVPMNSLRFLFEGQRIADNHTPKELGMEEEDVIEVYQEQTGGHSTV
G-protein coupled receptor 55, sequence (Q9Y2T6 whole entry): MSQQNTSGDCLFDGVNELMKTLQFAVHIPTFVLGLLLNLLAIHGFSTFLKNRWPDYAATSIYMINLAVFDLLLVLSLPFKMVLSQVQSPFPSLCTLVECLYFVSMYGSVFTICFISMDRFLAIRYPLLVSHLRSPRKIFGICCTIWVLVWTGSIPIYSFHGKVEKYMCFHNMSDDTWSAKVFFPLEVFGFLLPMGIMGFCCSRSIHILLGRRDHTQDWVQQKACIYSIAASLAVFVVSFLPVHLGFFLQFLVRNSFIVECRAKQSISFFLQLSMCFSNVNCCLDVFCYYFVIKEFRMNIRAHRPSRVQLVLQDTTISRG
Voltage-gated inwardly rectifying potassium channel KCNH2, sequence (Q12809 whole entry, the tested form may be a part): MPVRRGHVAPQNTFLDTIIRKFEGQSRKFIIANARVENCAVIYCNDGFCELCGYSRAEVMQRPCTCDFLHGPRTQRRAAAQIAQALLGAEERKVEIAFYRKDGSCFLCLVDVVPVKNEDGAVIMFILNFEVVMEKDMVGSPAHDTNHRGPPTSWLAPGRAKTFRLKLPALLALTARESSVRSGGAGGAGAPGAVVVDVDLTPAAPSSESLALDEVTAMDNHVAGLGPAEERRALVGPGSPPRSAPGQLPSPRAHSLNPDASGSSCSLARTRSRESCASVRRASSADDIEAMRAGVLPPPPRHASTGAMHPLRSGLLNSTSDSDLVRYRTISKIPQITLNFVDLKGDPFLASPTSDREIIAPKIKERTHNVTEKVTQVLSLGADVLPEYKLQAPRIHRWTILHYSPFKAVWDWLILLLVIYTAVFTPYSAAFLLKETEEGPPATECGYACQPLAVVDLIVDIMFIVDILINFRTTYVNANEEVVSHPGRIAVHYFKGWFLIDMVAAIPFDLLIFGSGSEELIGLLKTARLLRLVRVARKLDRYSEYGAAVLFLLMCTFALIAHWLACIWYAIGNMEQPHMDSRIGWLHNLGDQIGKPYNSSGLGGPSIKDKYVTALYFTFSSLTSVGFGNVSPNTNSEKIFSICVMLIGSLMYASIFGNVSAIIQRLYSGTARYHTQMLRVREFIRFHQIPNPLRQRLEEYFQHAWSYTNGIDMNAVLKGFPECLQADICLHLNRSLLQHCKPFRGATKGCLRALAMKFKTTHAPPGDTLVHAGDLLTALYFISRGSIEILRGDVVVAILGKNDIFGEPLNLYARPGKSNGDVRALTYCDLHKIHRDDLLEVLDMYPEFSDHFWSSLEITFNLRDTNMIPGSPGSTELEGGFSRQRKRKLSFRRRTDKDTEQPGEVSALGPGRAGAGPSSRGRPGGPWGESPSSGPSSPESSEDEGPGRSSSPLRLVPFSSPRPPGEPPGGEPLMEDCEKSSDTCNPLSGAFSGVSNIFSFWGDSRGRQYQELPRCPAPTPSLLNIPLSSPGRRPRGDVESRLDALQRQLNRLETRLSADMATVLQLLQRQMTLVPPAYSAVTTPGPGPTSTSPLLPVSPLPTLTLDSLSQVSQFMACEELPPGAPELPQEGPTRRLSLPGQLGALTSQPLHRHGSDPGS
Nonstructural protein 1, sequence (Q194T2 whole entry): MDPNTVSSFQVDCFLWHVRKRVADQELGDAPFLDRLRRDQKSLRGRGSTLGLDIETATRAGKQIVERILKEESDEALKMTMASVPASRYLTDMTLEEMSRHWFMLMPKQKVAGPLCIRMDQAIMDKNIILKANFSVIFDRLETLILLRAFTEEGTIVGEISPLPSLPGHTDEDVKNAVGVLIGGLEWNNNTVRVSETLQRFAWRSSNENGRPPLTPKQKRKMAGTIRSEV
Albumin, sequence (P02769 whole entry): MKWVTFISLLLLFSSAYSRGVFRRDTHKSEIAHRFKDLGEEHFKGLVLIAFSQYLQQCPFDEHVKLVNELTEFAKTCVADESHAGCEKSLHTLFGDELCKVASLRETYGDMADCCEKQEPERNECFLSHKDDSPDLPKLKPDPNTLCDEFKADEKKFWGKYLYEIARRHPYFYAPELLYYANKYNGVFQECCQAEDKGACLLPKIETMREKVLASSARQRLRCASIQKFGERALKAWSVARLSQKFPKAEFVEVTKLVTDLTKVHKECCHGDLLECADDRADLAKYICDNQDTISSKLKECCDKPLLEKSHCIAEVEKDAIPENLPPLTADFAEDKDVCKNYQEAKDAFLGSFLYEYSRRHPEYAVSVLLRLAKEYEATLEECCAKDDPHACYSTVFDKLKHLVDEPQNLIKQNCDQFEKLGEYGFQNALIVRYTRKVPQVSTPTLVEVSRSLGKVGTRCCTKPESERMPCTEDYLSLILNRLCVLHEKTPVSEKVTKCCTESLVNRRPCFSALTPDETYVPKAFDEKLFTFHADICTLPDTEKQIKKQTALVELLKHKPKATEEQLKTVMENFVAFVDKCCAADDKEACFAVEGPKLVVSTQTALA
DNA dC->dU-editing enzyme APOBEC-3A, sequence (P31941 whole entry, the tested form may be a part): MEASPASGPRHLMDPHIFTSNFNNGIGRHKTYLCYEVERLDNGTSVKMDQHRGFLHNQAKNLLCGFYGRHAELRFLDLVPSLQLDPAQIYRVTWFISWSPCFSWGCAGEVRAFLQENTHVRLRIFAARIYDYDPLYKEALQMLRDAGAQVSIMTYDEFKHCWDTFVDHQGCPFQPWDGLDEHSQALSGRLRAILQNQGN
DNA dC->dU-editing enzyme APOBEC-3G, sequence (Q9HC16 whole entry): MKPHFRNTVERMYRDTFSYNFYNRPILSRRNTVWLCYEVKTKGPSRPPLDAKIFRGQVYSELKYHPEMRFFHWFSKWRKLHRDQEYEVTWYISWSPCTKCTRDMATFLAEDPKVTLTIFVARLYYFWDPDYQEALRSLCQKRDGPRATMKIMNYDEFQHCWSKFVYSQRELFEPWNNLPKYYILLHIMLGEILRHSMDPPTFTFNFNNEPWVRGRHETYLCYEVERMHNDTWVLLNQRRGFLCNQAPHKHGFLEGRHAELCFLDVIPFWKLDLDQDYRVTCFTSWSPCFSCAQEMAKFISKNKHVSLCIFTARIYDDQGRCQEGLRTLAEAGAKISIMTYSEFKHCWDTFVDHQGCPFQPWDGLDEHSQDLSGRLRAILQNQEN

With O=C(NNc1nc2c(F)cccc2s1)c1ccccc1 the IC50 [1] was > 67.5 µM (inactive) and the IC50 [2] was > 67.5 µM (inactive).

For COC(=O)C1=C(C)N(Cc2ccccc2)C(=NCC(C)C)N[C@H]1c1ccccc1, the IC50 [3] was 1.78 µM (active), the IC50 [4] was 4.65 µM (active) and the EC50 [5] was > 300 µM (not active). For the same molecule, the EC50 [6] was 42.7 µM (active) and the IC50 [7] was 4.17 µM (active).

With CCCCOC(=O)c1ccccc1C(=O)OCc1ccccc1 the AC50 [8] was 25.1 µM (inconclusive).

With N#Cc1c(SCC(=O)Nc2cccc(F)c2)sc2c(O)cc(=O)[nH]c12 the IC50 [9] was 7.26 µM (active).

For O=C(Nc1ccc(Cl)cc1)c1cc2c(cc1O)[nH]c1ccccc12, the AC50 [10] was 0.198 µM (active) and the CC50 [11] was 10.9 µM (active).

In the case of O=C(OCc1cc(=O)n2c(n1)sc1ccccc12)c1ccc(O)cc1, the IC50 [9] was 5.75 µM (active).

With COc1ccc(C(=O)N[C@H](C(=O)NCCCSc2ccccc2)C(C)C)cc1 the IC50 [1] was > 67.5 µM (inactive) and the IC50 [2] was > 67.5 µM (inactive).

For CCOc1ccc(Nc2ccc(N)c(S(=O)(=O)O)c2)cc1, the AC50 [12] was 299 µM (active), the IC50 [13] was > 66.6 µM (inactive) and the IC50 [14] was > 94.1 µM (inactive). The IC50 [9] was 3.21 µM (active), the IC50 [15] was 68.9 µM (active) and the IC50 [16] was 11.7 µM (active).

In the case of CCCCN1C(=O)/C(=N\Nc2ccccc2)c2ccccc21, the IC50 [17] was 72.3 µM (active) and the IC50 [18] was 18.7 µM (active).

With CN1CCN(C2CCN(c3ccc(Nc4nnc(Cl)c(Nc5ccccc5S(C)(=O)=O)n4)c(OC(CF)CF)c3)CC2)CC1 the IC50 [19] was > 100 µM (active).

For CCOc1ccc(NC(=O)c2ccc(CCN3CCc4ccccc4C3)cc2)cc1, the IC50 [20] was > 20 µM (inactive), the IC50 [21] was > 20 µM (inactive) and the IC50 [22] was > 20 µM (inactive).

In the case of CN(C)c1ccc(NC(=O)c2ccc(CN3CCc4ccccc4C3)cc2)cc1, the IC50 [20] was > 20 µM (inactive), the IC50 [21] was 1.83 µM (active) and the IC50 [22] was 1.61 µM (active).

For Cn1c(NCC(=O)c2ccc(O)c(O)c2)nc2ccccc21, the IC50 [17] was 8.58 µM (active) and the IC50 [18] was 7.9 µM (active).

For Cc1[nH]c2ccccc2c1/C=N/NC(=O)c1cccs1, the IC50 [1] was > 67.6 µM (inactive), the IC50 [2] was > 67.6 µM (inactive) and the IC50 [23] was > 79 µM (inactive).
